Results from US11492335B2, “Aryl or heteroaryl triazolone derivatives or salts thereof, or pharmaceutical compositions comprising the same” (YUHAN CORPORATION, priority 2018, dated 2022).
Structures can show the parent of a compound that is named as a salt.

Assays:
Format in all cases: biochemical
recombinant human VAP-1 = target: T1, recombinant human VAP-1 (Homo sapiens, UniProt Q16853); assay: Activity on recombinant human VAP-1, Amplex Red HRP-coupled hydrogen peroxide assay, benzylamine substrate; conditions: recombinant human VAP-1, benzylamine substrate, 30 min preincubation at 37° C.; read-out: Inhibitory Activity (IC50, nM) human VAP-1
T1 construct: purchased R&D systems
T1 sequence (Q16853 1-763): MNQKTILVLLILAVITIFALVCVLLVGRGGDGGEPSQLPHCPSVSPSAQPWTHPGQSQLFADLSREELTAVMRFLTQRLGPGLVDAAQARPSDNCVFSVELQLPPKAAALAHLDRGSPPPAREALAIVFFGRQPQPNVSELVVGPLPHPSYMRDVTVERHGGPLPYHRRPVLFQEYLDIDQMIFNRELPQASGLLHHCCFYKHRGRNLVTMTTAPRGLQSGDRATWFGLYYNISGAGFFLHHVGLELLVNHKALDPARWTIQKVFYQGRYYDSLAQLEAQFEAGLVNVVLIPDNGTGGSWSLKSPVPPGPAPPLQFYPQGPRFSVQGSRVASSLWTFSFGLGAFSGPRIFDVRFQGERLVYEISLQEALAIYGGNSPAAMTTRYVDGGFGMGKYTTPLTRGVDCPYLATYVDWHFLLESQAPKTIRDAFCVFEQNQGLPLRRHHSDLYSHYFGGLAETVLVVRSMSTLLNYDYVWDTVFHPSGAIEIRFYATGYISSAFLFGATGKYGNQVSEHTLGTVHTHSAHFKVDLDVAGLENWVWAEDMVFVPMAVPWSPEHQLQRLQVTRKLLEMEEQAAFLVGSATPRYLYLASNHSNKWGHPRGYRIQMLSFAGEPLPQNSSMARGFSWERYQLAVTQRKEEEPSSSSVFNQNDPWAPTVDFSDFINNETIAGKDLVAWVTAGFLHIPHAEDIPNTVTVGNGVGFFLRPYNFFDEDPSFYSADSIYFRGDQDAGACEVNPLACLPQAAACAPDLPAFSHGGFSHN
How it was run: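 8-point 1:3 dilutions, final DMSO <1%; 30 min enzyme preincubation, 37 °C, pH 7.4 phosphate. Start: 1 mM benzylamine + 200 uM Amplex Red + 1 U/mL HRP. Read ex544/em590 over 1-2 h; % rate decrease vs DMSO control, 4-parameter logistic IC50.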

[1] = target: T2, recombinant human MAO-A (monoamine oxidase-A) (Homo sapiens, UniProt P21397); assay: Activity on recombinant human MAO-A, Amplex Red method, 0.5 mM tyramine substrate; conditions: 0.5 mM tyramine, read-out: Inhibitory Activity (IC50, nM) MAO-A
T2 construct: purchased Sigma-Aldrich
T2 sequence (P21397 1-527): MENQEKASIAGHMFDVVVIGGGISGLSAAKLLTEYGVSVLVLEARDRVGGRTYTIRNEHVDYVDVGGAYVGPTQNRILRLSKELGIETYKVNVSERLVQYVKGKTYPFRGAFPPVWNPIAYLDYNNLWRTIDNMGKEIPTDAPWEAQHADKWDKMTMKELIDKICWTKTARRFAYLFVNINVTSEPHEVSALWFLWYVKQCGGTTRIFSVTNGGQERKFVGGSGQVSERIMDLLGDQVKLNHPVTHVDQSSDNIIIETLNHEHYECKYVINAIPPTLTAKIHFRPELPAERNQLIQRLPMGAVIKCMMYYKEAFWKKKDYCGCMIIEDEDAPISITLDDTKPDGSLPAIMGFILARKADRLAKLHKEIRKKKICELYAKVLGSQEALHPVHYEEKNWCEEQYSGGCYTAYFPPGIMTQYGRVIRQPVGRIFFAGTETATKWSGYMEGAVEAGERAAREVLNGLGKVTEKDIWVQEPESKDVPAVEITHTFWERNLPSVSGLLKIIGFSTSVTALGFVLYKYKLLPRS
How it was run: (§1)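 HRP-coupled Amplex Red H2O2 assay, 50 mM sodium phosphate pH 7.4; compounds (8-point 1:3 series, final DMSO <1%) preincubated with enzyme 30 min at 37° C, then 200 uM Amplex Red, 1 U/mL HRP and substrate (MAO-A 0.5 mM tyramine; MAO-B 1 mM benzylamine) added. Resorufin fluorescence (ex 544/em 590 nm) read over 1-2 h; IC50 from four-parameter logistic fit.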

[2] = target: T3, recombinant human MAO-B (monoamine oxidase-B) (Homo sapiens, UniProt P27338); assay: Activity on recombinant human MAO-B, Amplex Red method, 1 mM benzylamine substrate; conditions: 1 mM benzylamine, read-out: Inhibitory Activity (IC50, nM) MAO-B
T3 construct: purchased Sigma-Aldrich
T3 sequence (P27338 1-520): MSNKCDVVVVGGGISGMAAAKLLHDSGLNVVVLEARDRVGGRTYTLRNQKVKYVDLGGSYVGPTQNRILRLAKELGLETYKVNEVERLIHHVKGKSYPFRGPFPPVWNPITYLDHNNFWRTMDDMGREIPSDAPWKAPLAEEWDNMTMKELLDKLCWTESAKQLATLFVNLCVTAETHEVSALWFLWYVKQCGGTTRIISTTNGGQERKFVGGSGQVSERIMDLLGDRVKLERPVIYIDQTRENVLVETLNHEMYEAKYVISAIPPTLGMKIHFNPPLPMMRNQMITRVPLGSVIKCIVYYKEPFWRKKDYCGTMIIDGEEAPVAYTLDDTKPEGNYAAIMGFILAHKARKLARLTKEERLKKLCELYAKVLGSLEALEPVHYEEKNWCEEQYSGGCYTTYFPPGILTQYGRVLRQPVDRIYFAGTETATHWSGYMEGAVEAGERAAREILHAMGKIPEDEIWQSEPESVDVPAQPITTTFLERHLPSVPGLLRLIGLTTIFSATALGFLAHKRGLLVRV
How it was run: as §1

[3] = target: T4, recombinant human DAO (diamine oxidase) (Homo sapiens, UniProt P19801); assay: Activity on recombinant human DAO, Amplex Red method, 1 mM putrescine substrate; conditions: recombinant human DAO, 1 mM putrescine; * = between 10 and 100 nM, ** = between 300 and 1000 nM; read-out: Inhibitory Activity (IC50, nM) DAO
T4 construct: purchased R&D systems
T4 sequence (P19801 20-751): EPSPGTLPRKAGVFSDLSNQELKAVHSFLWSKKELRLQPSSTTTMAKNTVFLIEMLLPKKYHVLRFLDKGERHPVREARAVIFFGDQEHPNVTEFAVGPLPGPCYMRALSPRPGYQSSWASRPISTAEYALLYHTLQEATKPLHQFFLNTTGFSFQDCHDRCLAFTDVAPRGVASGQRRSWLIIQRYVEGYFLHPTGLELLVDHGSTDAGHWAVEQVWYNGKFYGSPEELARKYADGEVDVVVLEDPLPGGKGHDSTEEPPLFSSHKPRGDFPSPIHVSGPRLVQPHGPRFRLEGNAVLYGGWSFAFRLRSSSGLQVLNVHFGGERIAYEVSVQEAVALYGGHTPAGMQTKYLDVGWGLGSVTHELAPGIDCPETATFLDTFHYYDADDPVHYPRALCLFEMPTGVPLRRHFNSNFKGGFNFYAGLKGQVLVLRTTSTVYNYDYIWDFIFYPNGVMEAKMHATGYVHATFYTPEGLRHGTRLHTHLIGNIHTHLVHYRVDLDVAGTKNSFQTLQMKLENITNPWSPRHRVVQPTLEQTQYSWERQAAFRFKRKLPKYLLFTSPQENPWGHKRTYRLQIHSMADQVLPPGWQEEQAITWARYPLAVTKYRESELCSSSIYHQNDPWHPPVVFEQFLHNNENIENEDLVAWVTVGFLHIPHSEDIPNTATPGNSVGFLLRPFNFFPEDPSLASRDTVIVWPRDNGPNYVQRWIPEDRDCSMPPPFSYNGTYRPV
How it was run: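 Inhibition of recombinant human DAO (diamine oxidase, R&D systems) was assessed with the Amplex Red Hydrogen Peroxide Assay Kit. Hydrogen peroxide produced from 1 mM putrescine was detected through an HRP-coupled reaction that converts Amplex Red into fluorescent resorufin, read at 544 nm excitation and 590 nm emission. IC50 values came from four-parameter logistic fits in GraphPad Prism.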

Row | IC50 (recombinant human VAP-1) [nM] | IC50 [1] [nM] | IC50 [2] [nM] | IC50 [3] [nM] | SMILES
1 | 0.8 | > 100000 | > 10000 | 18 | Cc1cc(-c2cccc(-n3cnn(C/C(=C/F)CN)c3=O)c2)ccc1N1CCOCC1 [Example 77, 2-[(2E)-2-(aminomethyl)-3-fluoroprop-2-en-1-yl]-4-[3′-methyl-4′-(morpholin-4-yl)biphenyl-3-yl]-2,4-dihydro-3H-1,2,4-triazol-3-one hydrochloride]
2 | 1 | > 100000 | > 10000 | 0.2 | NC/C(=C\F)Cn1ncn(-c2cccc(-c3ccc(C(=O)N4CCOCC4)cc3)c2)c1=O [Example 78, 2-[(2E)-2-(aminomethyl)-3-fluoroprop-2-en-1-yl]-4-[4′-(morpholin-4-ylcarbonyl)biphenyl-3-yl]-2,4-dihydro-3H-1,2,4-triazol-3-one hydrochloride]
3 | 0.62 | > 100000 | 1800 | < 10 | NC/C(=C\F)Cn1ncn(-c2cccc(-c3ccc(Cl)nc3)c2)c1=O [Example 85, 2-[(2E)-2-(aminomethyl)-3-fluoroprop-2-en-1-yl]-4-[3-(6-chloropyridin-3-yl)phenyl]-2,4-dihydro-3H-1,2,4-triazol-3-one hydrochloride]
4 | 0.62 | > 100000 | 1230 | < 100 | NC/C(=C\F)Cn1ncn(-c2cccc(-c3ccc(N4CCOCC4)nc3)c2)c1=O [Example 86, 2-[(2E)-2-(aminomethyl)-3-fluoroprop-2-en-1-yl]-4-{3-[6-(morpholin-4-yl)pyridin-3-yl]phenyl}-2,4-dihydro-3H-1,2,4-triazol-3-one hydrochloride]

Continued, molecule first:

Row | SMILES | IC50 (recombinant human VAP-1) [nM] | IC50 [1] [nM] | IC50 [2] [nM] | IC50 [3] [nM]
5 | COc1cc(-c2cccc(-n3cnn(C/C(=C/F)CN)c3=O)c2)ccn1 [Example 79, 2-[(2E)-2-(aminomethyl)-3-fluoroprop-2-en-1-yl]-4-[3-(2-methoxypyridin-4-yl)phenyl]-2,4-dihydro-3H-1,2,4-triazol-3-one hydrochloride] | 0.47 | > 100000 | 7900 | 2.2
6 | CC(=O)Nc1cc(-c2cccc(-n3cnn(C/C(=C\F)CN)c3=O)c2)ccn1 [Example 80, N-[4-(3-{1-[(2Z)-2-(aminomethyl)-3-fluoroprop-2-en-1-yl]-5-oxo-1,5-dihydro-4H-1,2,4-triazol-4-yl}phenyl)pyridin-2-yl]acetamide hydrochloride] | 1.1 | > 100000 | > 10000 | 12
7 | CC(=O)Nc1cc(-c2cccc(-n3cnn(C/C(=C/F)CN)c3=O)c2)ccn1 [Example 81, N-[4-(3-{1-[(2E)-2-(aminomethyl)-3-fluoroprop-2-en-1-yl]-5-oxo-1,5-dihydro-4H-1,2,4-triazol-4-yl}phenyl)pyridin-2-yl]acetamide hydrochloride] | 0.54 | > 100000 | 7520 | < 100
8 | NC/C(=C\F)Cn1ncn(-c2cccc(-c3cccnc3)c2)c1=O [Example 82, 2-[(2E)-2-(aminomethyl)-3-fluoroprop-2-en-1-yl]-4-[3-(pyridin-3-yl)phenyl]-2,4-dihydro-3H-1,2,4-triazol-3-one hydrochloride] | 0.8 | > 100000 | 18000 | < 100
9 | COc1ccc(-c2cccc(-n3cnn(C/C(=C/F)CN)c3=O)c2)cn1 [Example 83, 2-[(2E)-2-(aminomethyl)-3-fluoroprop-2-en-1-yl]-4-[3-(6-methoxypyridin-3-yl)phenyl]-2,4-dihydro-3H-1,2,4-triazol-3-one hydrochloride] | 0.88 | > 100000 | 2460 | < 30
10 | NC/C(=C\F)Cn1ncn(-c2cccc(-c3ccc(C(F)(F)F)nc3)c2)c1=O [Example 84, 2-[(2E)-2-(aminomethyl)-3-fluoroprop-2-en-1-yl]-4-{3-[6-(trifluoromethyl)pyridin-3-yl]phenyl}-2,4-dihydro-3H-1,2,4-triazol-3-one hydrochloride] | 0.78 | > 100000 | 3000 | < 10
11 | COc1ncc(-c2cccc(-n3cnn(C/C(=C/F)CN)c3=O)c2)cc1C(F)(F)F [Example 87, 2-[(2E)-2-(aminomethyl)-3-fluoroprop-2-en-1-yl]-4-{3-[6-methoxy-5-(trifluoromethyl)pyridin-3-yl]phenyl}-2,4-dihydro-3H-1,2,4-triazol-3-one hydrochloride] | 1 | > 100000 | 22 | < 100
12 | NC/C(=C\F)Cn1ncn(-c2cccc(-c3cnc(O)c(C(F)(F)F)c3)c2)c1=O [Example 88, 2-[(2E)-2-(aminomethyl)-3-fluoroprop-2-en-1-yl]-4-{3-[6-hydroxy-5-(trifluoromethyl)pyridin-3-yl]phenyl}-2,4-dihydro-3H-1,2,4-triazol-3-one hydrochloride] | 1.1 | > 100000 | 9600 | < 10
